Source: US6750224B1, “Antibacterial optically pure benzoquinolizine carboxylic acids, processes, compositions and methods of treatment” (priority 1999, dated 2004)
≈ marks a conversion by molar mass, not a printed value. Like-named read-outs stand apart in the source and are kept apart here.

What was measured:
[1] = Chemical stability under heating (HPLC); format: physicochemical
Description: The anhydride and hydrates were each introduced into a glass vial and maintained at 70° C. Thus the thermal decomposition with elapsed time was analysed by HPLC and the results thus obtained are described in Table 8

[2] = system: Mupirocin-resistant Staph STA-34; test: In-vitro antimicrobial activity test (MIC, NCCLS); format: cell-based, Staphylococcus aureus
Excerpt: (§1) The test method was in accordance with the standard NCCLS protocol.

MRSA STA-4 = test: In-vitro antimicrobial activity test (MIC, NCCLS); format: cell-based, Staphylococcus aureus
Excerpt: as §1

MRSE STE-22 = test: In-vitro antimicrobial activity test (MIC, NCCLS); format: cell-based, Staphylococcus epidermidis
Excerpt: as §1

[3] = system: Streptococcus pneumoniae ATCC 6303; test: In-vitro antimicrobial activity test (MIC, NCCLS); format: cell-based
Excerpt: as §1

Streptococcus pyogenes = test: In-vitro antimicrobial activity test (MIC, NCCLS); format: cell-based
Excerpt: as §1

[4] = system: Enterococcus faecalis ATCC 29212; test: In-vitro antimicrobial activity test (MIC, NCCLS); format: cell-based
Excerpt: as §1

Enterococcus faecium = test: In-vitro antimicrobial activity test (MIC, NCCLS); format: cell-based
Excerpt: as §1

Propioni bacterium acnes = test: In-vitro antimicrobial activity test (MIC, NCCLS); format: cell-based
Excerpt: as §1

[5] = system: Viridans group Streptococci; test: In-vitro antimicrobial activity test (MIC, NCCLS); format: cell-based
Excerpt: as §1

Corynebacterium jeikeium = test: In-vitro antimicrobial activity test (MIC, NCCLS); format: cell-based
Excerpt: as §1

[6] = system: Staphylococcus aureus ATCC 25923; test: In-vitro antimicrobial activity test (MIC, NCCLS); format: cell-based
Excerpt: as §1

Bacteroides fragilis = test: In-vitro antimicrobial activity test (MIC, NCCLS); format: cell-based
Excerpt: as §1

[7] = system: Chryseobacterium meningosepticum; test: In-vitro antimicrobial activity test (MIC, NCCLS); format: cell-based
Excerpt: as §1

[8] = system: Mycobacterium intracellulare; test: In-vitro antimicrobial activity test (MIC, NCCLS); format: cell-based
Excerpt: as §1

Mycobacterium avium = test: In-vitro antimicrobial activity test (MIC, NCCLS); format: cell-based
Excerpt: as §1

[9] = system: Escherichia coli ATCC 25922; test: In-vitro antimicrobial activity test (MIC, NCCLS); format: cell-based
Excerpt: as §1

Pseudomonas aeruginosa = test: In-vitro antimicrobial activity test (MIC, NCCLS); format: cell-based
Excerpt: as §1

Haemophilus influenzae = test: In-vitro antimicrobial activity test (MIC, NCCLS); format: cell-based
Excerpt: as §1

[10] = system: Mycobacterium tuberculosis ATCC 27294; test: In-vitro antimicrobial activity test (MIC, NCCLS); format: cell-based
Excerpt: as §1

Serratia marcescens = test: In-vitro antimicrobial activity test (MIC, NCCLS); format: cell-based
Excerpt: as §1

in vivo = test: in vivo; design: species or system Swiss mice; conditions: Swiss, mouse, po, 30 mg/kg
Description: The blood levels of RS-(±)-Nadifloxacin and S-(−)-Nadifloxacin administered orally to Swiss mice at a dose of 30mg/kg are shown in Table 3 with respect to the AUC (μg/ml.hr), monitored from 15 minutes to 4 hours.

[11] = Acute intravenous toxicity in mice; conditions: mouse, in vivo, iv
Acinetobacter 3109 = test: Effect of pH on potency of fluoroquinolones (MIC at pH 5.5 and 7.0); format: cell-based; conditions: MIC pH 7 vs pH 5.5
Excerpt: (§2) The test method was in accordance with the standard NCCLS protocol employing test media adjusted at pH 5.5 and 7.0.

Ps. Aeruginosa = test: as above; format: cell-based; conditions: MIC pH 7 vs pH 5.5
Excerpt: as §2

P. mirabilis 37 = test: as above; format: cell-based; conditions: MIC pH 7 vs pH 5.5
Excerpt: as §2

E. coli 2015 = test: as above; format: cell-based; conditions: MIC pH 7 vs pH 5.5
Excerpt: as §2

E. faecalis = test: as above; format: cell-based; conditions: MIC pH 7 vs pH 5.5
Excerpt: as §2

Serratia marcescens 2702 = test: as above; format: cell-based; conditions: MIC pH 7 vs pH 5.5
Excerpt: as §2

S. aureus 1199-B = test: as above; format: cell-based; conditions: MIC pH 7 vs pH 5.5
Excerpt: as §2

P. vulgaris 66 = test: as above; format: cell-based; conditions: MIC pH 7 vs pH 5.5
Excerpt: as §2

E. coli 25922 = test: as above; format: cell-based; conditions: MIC pH 7 vs pH 5.5
Excerpt: as §2

Klebsiella 24037 = test: as above; format: cell-based; conditions: MIC pH 7 vs pH 5.5
Excerpt: as §2

P. rettgeri N 1764 = test: as above; format: cell-based; conditions: MIC pH 7 vs pH 5.5
Excerpt: as §2

S. aureus 25923 = test: as above; format: cell-based; conditions: MIC pH 7 vs pH 5.5
Excerpt: as §2

[12] = system: S.aureus strain bearing Nor A efflux pump; format: cell-based; conditions: Nor A efflux pump strain vs strain devoid of efflux pump
Description: Using this set of MIC values, % loss in potency due to efflux was calculated for each of the fluoroquinolone in Table 5

[13] = Equilibrium moisture content determination at several relative humidities; format: physicochemical; conditions: Karl Fischer
Excerpt: Silica (anhydrous) and three saturated solutions of electrolytes prepared by dissolving the respective salts in water were each introduced into different desiccators to control the inner relative humidity to a specific value as represented in the following Table 7. Then, the equilibrium moisture contents of S-(−)-9-fluoro-6,7-dihydro-8-(4-hydroxypiperidin-1-yl)-5-methyl-1-oxo-1H,5H-benzo[i,j]quinolizine-2-carboxylic acid anhydrate and S-(−)-9-fluoro-6,7-dihydro-8-(4-hydroxypiperidin-1-yl)-5-methyl-1-oxo-1H,5H-benzo[i,j]quinolizine-2-carboxylic acid 0.2 hydrate prepared in Examples 1 and 2 respectively were determined at several relative humidities.
Specifically, 1 g of the sample was spread on a pre-weighed petridish and the total weight was accurately measured, then both the samples were placed in each desiccator of Table 8 The dessicators were allowed to stand at normal temperature for at least 3 days and the weight was measured agingly over this period. The weight changes were tabulated. At the end of 3 days all samples were taken to be weighed. The moisture content of each sample was determined by Karl Fischer analysis. Equilibrium moisture content at each relative humidity is represented in FIG. 1 (anhydrate) and FIG. 2 (0.2 hydrate).

Phototoxicity studies = conditions: in vivo

In the case of `C[C@H]1CCc2c(N3CCC(O)CC3)c(F)cc3c(=O)c(C(=O)O)cn1c23.O` [Example 4, S-(−)-9-fluoro-6,7-dihydro-8-(4-hydroxypiperidin-1-yl)-5-methyl-1-oxo-1H,5H-benzo[i,j]quinolizine-2-carboxylic acid 0.75 hydrate], the “Thermal stability with elapsed time at 70° C.” value (from here on “Thermal stability”) [1] is reported as 98.3% and the “chemical stability at 70° C., in words” value [1] is reported as “decompose with time”.

In the case of `C/C(=C\C(=O)OCCCCCCCCC(=O)O)C[C@@H]1OC[C@H](C[C@@H]2O[C@H]2[C@@H](C)[C@H](C)O)[C@@H](O)[C@H]1O` [Mupirocin], the MIC [2] is reported as > 400 µg/mL, the MIC (MRSA STA-4) is reported as 0.4 µg/mL (≈ 0.799 µM) and the MIC (MRSE STE-22) is reported as 0.2 µg/mL (≈ 0.399 µM). For the same compound, the MIC [3] was 0.2 µg/mL (≈ 0.399 µM), the MIC (Streptococcus pyogenes) was 0.025 µg/mL (≈ 0.0499 µM) and the MIC [4] was > 12.5 µg/mL. For the same compound, the MIC (Enterococcus faecium) was > 0.8 µg/mL, the MIC (Propioni bacterium acnes) was > 1000 µg/mL and the MIC [5] was 0.2 µg/mL (≈ 0.399 µM). The MIC (Corynebacterium jeikeium) was > 12.5 µg/mL and the MIC [6] was 0.4 µg/mL (≈ 0.799 µM).

Compound `CC1CCc2c(N3CCC(O)CC3)c(F)cc3c(=O)c(C(=O)O)cn1c23` (racemic) [RS-(±)-Nadifloxacin, (±)-9-fluoro-8-(4-hydroxypiperidin-1-yl)-5-methyl-6,7-dihydro-1-oxo-1H-5H-benzo[i,j]quinolizine-2-carboxylic acid] has an MIC [2] of 1.56 µg/mL (≈ 4.33 µM), an MIC (MRSA STA-4) of 0.8 µg/mL (≈ 2.22 µM) and an MIC (MRSE STE-22) of 1.56 µg/mL (≈ 4.33 µM). It also gave an MIC [3] of 0.4 µg/mL (≈ 1.11 µM), an MIC (Bacteroides fragilis) of 3.12 µg/mL (≈ 8.66 µM) and an MIC (Streptococcus pyogenes) of 0.4 µg/mL (≈ 1.11 µM). For the same compound, the MIC [4] was 0.4 µg/mL (≈ 1.11 µM), the MIC (Enterococcus faecium) was 0.8 µg/mL (≈ 2.22 µM) and the MIC (Propioni bacterium acnes) was 0.2 µg/mL (≈ 0.555 µM). The MIC [5] was 0.4 µg/mL (≈ 1.11 µM), the MIC [7] was 1.56 µg/mL (≈ 4.33 µM) and the MIC [8] was 3.12 µg/mL (≈ 8.66 µM). It also gave an MIC (Mycobacterium avium) of 6.25 µg/mL (≈ 17.3 µM), an MIC (Corynebacterium jeikeium) of 0.2 µg/mL (≈ 0.555 µM) and an MIC [6] of 0.05 µg/mL (≈ 0.139 µM). For the same compound, the MIC [9] was 0.8 µg/mL (≈ 2.22 µM), the MIC (Pseudomonas aeruginosa) was 3.12 µg/mL (≈ 8.66 µM) and the MIC (Haemophilus influenzae) was 0.05 µg/mL (≈ 0.139 µM). It also gave an MIC [10] of 1.56 µg/mL (≈ 4.33 µM), an MIC (Serratia marcescens) of 1.56 µg/mL (≈ 4.33 µM) and an AUC (in vivo) of 16900 ng·h/mL. For the same compound, the LD50 [11] was 311 mg/kg.

In the case of `C[C@H]1COc2c(N3CCN(C)CC3)c(F)cc3c(=O)c(C(=O)O)cn1c23` [Levofloxacin], the MIC [2] is reported as 12.5 µg/mL (≈ 34.6 µM), the MIC (MRSA STA-4) is reported as > 12.5 µg/mL and the MIC (MRSE STE-22) is reported as > 12.5 µg/mL. The MIC [3] was 0.8 µg/mL (≈ 2.21 µM), the MIC (Bacteroides fragilis) was 6.25 µg/mL (≈ 17.3 µM) and the MIC (Streptococcus pyogenes) was 0.4 µg/mL (≈ 1.11 µM). The MIC [4] was 0.8 µg/mL (≈ 2.21 µM), the MIC (Enterococcus faecium) was 1.56 µg/mL (≈ 4.32 µM) and the MIC (Propioni bacterium acnes) was 1 µg/mL (≈ 2.77 µM). The MIC [5] was 1.56 µg/mL (≈ 4.32 µM), the MIC [7] was 6.25 µg/mL (≈ 17.3 µM) and the MIC [8] was 0.8 µg/mL (≈ 2.21 µM). It also gave an MIC (Mycobacterium avium) of 12.5 µg/mL (≈ 34.6 µM), an MIC (Corynebacterium jeikeium) of 0.4 µg/mL (≈ 1.11 µM) and an MIC [6] of 0.2 µg/mL (≈ 0.553 µM). It also gave an MIC [9] of 0.05 µg/mL (≈ 0.138 µM), an MIC (Pseudomonas aeruginosa) of 3.12 µg/mL (≈ 8.63 µM) and an MIC (Haemophilus influenzae) of 0.03 µg/mL (≈ 0.083 µM). For the same compound, the MIC [10] was 0.4 µg/mL (≈ 1.11 µM), the MIC (Serratia marcescens) was 0.1 µg/mL (≈ 0.277 µM) and the “% change in potency at pH 5.5, loss (−)/gain (+)” value (“% change … loss (−)/gain (+)” for short) (Acinetobacter 3109) was −94%. The “% change … loss (−)/gain (+)” value (Ps. Aeruginosa) was −50%, the “% change … loss (−)/gain (+)” value (P. mirabilis 37) was −94% and the “% change … loss (−)/gain (+)” value (E. coli 2015) was −87.5%. For the same compound, the “% change … loss (−)/gain (+)” value (E. faecalis) was −75%, the “% change … loss (−)/gain (+)” value (Serratia marcescens 2702) was −98% and the “% change … loss (−)/gain (+)” value (S. aureus 1199-B) was −75%. The “% change … loss (−)/gain (+)” value (P. vulgaris 66) was −94%, the “% change … loss (−)/gain (+)” value (E. coli 25922) was −96% and the “% change … loss (−)/gain (+)” value (Klebsiella 24037) was −94%. For the same compound, the “% change … loss (−)/gain (+)” value (P. rettgeri N 1764) was −94% and the “% change … loss (−)/gain (+)” value (S. aureus 25923) was −75%.

With `CO/N=C1\CN(c2nc3c(cc2F)c(=O)c(C(=O)O)cn3C2CC2)CC1CN` (centres unmarked) [Gemifloxacin] the “% loss in potency for S. aureus bearing Efflux pump” value [12] was 75%.

For `C[C@H]1CCc2c(N3CCC(O)CC3)c(F)cc3c(=O)c(C(=O)O)cn1c23` [Example 1, S-(−)-9-fluoro-6,7-dihydro-8-(4-hydroxypiperidin-1-yl)-5-methyl-1-oxo-1H,5H-benzo[i,j]quinolizine-2-carboxylic acid anhydrate], the “Thermal stability” value ([1]; 1 week, HPLC) was 98.7%, the “Thermal stability” value ([1]; 2 week, HPLC) was 98.6% and the “Thermal stability” value ([1]; Initial, HPLC) was 98.9%. The equilibrium moisture content ([13]; relative humidity 20% to 58%) was “around 0.1%” and the equilibrium moisture content ([13]; relative humidity 75% to 95%) was “around 1%”.

For `C[C@@H]1CN(c2c(F)c(N)c3c(=O)c(C(=O)O)cn(C4CC4)c3c2F)C[C@H](C)N1` [Sparfloxacin], the “phototoxic dosage, times lower than S-(−)-Nadifloxacin” value (Phototoxicity studies) was 25 times.
